Drawing on patent US20100093722A1, “HETEROARYL AND PHENYL SUBSTITUTED THIENO[2,3-d]PYRIMIDINES AND THEIR USE AS ADENOSINE A2a RECEPTOR ANTAGONISTS” (priority 2008, published 2010), this text covers Ki for nine compounds.

Molecules are shown by their SMILES. pKi: −log10 of the molar value.

Experiment [1] concerns the target T1, human adenosine A1 receptor (Homo sapiens, UniProt P30542).
T1 construct: expressed in transfected cells; host or cells: CHO-K1
T1 sequence (P30542 1-326): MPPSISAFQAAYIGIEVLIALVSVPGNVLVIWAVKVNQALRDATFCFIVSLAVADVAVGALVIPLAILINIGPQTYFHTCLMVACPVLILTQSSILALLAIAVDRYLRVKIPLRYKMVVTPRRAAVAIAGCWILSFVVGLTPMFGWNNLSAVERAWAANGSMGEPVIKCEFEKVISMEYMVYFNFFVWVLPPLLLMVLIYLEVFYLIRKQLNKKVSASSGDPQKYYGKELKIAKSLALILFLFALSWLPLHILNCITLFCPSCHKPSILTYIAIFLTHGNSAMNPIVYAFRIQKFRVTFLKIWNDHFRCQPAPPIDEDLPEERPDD
In words: Adenosine A1 Receptor Functional Assay (A1GAL2). Type of experiment: cell-based. The conditions noted are these: CHO-K1 cells overexpressing human A1, cAMP inducible beta-galactosidase reporter, 4 nM r-PIA/1 uM Forskolin challenge. Here is the method: Adenosine A1 Receptor Functional Assay (A1GAL2)
To initiate the functional assay, cryopreserved CHO-K1 cells overexpressing the human adenosine A1 receptor and containing a cAMP inducible beta-galactosidase reporter gene were thawed, centrifuged, DMSO containing media removed, and then seeded with fresh culture media into clear 384-well tissue culture treated plates (BD #353961) at a concentration of 10K cells/well. Prior to assay, these plates were cultured for two days at 37+ C., 5% CO2, 90% Rh. On the day of the functional assay, culture media was removed and replaced with 45 uL assay medium (Hams/F-12 Modified (Mediatech #10-080CV) supplemented w/0.1% BSA). Test compounds were diluted and 11 point curves created at a 1000× concentration in 100% DMSO. Immediately after addition of assay media to the cell plates, 50 nL of the appropriate test compound antagonist or agonist control curves were added to cell plates using a Cartesian Hummingbird. Compound curves were allowed to incubate at room temperature on cell plates for approximately 15 minutes before addition of a 4 nM r-PIA (Sigma P4532)/1 uM Forskolin (Sigma F3917) agonist challenge (5 uL volume). A control curve of r-PIA in 1 uM Forskolin, a DMSO/Media control, and a single dose of Forskolin were also included on each plate. After additions, cell plates were allowed to incubate at 37° C., 5% CO2, 90% Rh for 5.5-6 hours. After incubation, media was removed, and cell plates were washed 1× 50 uL with DPBS w/o Ca & Mg (Mediatech 21-031-CV). Into dry wells, 20 uL of 1× Reporter Lysis Buffer (Promega E3971 (diluted in dH2O from 5× stock)) was added to each well and plates frozen at −20° C. overnight. For β-galactosidase enzyme calorimetric assay, plates were thawed out at room temperature and 20 μL 2× assay buffer (Promega) was added to each well. Color was allowed to develop at 37° C., 5% CO2, 90% Rh for 1-1.5 h or until reasonable signal appeared. The calorimetric reaction was stopped with the addition of 60 μL/well 1M sodium carbonate. Plates were counted at 405 nm on a SpectraMax Microplate Reader (Molecular Devices). Data was analyzed in Microsoft Excel and IC/EC50 curves were fit using a standardized macro.

Experiment [2] has as its target T2, human A2a adenosine receptor (Homo sapiens, UniProt P29274).
T2 construct: purchased PerkinElmer RB-HA2a; host or cells: HEK293 plasma membrane
In words: Ligand Binding Assay for Adenosine A2a Receptor (A2A-B). The following applies: plasma membrane of HEK293 cells containing human A2a receptor, radioligand [3H]CGS21680. Here is the method:
Ligand Binding Assay for Adenosine A2a Receptor
Ligand binding assay of adenosine A2a receptor was performed using plasma membrane of HEK293 cells containing human A2a adenosine receptor (PerkinElmer, RB-HA2a) and radioligand [^3H]CGS21680 (PerkinElmer, NET1021). Assay was set up in 96-well polypropylene plate in total volume of 200 μL by sequentially adding 20 μL 1:20 diluted membrane, 130 μL assay buffer (50 mM Tris.HCl, pH 7.4 10 mM MgCl2, 1 mM EDTA) containing [^3H] CGS21680, 50 μL diluted compound (4×) or vehicle control in assay buffer. Nonspecific binding was determined by […] NECA. Reaction was carried out at room temperature for 2 hours before filtering through 96-well GF/C filter plate pre-soaked in 50 mM Tris.HCl, pH 7.4 containing 0.3% polyethylenimine. Plates were then washed 5 times with cold 50 mM Tris.HCl, pH 7.4, dried and sealed at the bottom. Microscintillation fluid 30 μL was added to each well and the top sealed. Plates were counted on Packard Topcount for [^3H]. Data was analyzed in Microsoft Excel and GraphPad Prism programs. (Varani, K.; Gessi, S.; Dalpiaz, A.; Borea, P. A. British Journal of Pharmacology, 1996, 117, 1693)

Experiment [3] concerns the target T3, human adenosine A2a receptor (Homo sapiens, UniProt P29274).
T3 construct: expressed in transfected cells; host or cells: CHO-K1
In words: Adenosine A2a Receptor Functional Assay (A2AGAL2). Type of experiment: cell-based. The following applies: CHO-K1 cells overexpressing human A2a, cAMP inducible beta-galactosidase reporter, 15 nM NECA agonist challenge. On the procedure:
Adenosine A2a Receptor Functional Assay (A2AGAL2)
To initiate the functional assay, cryopreserved CHO-K1 cells overexpressing the human adenosine A2a receptor and containing a cAMP inducible beta-galactosidase reporter gene were thawed, centrifuged, DMSO containing media removed, and then seeded with fresh culture media into clear 384-well tissue culture treated plates (BD #353961) at a concentration of 10K cells/well. Prior to assay, these plates were cultured for two days at 37° C., 5% CO2, 90% Rh. On the day of the functional assay, culture media was removed and replaced with 45 uL assay medium (Hams/F-12 Modified (Mediatech #10-080CV) supplemented w/0.1% BSA). Test compounds were diluted and 11 point curves created at a 1000× concentration in 100% DMSO. Immediately after addition of assay media to the cell plates, 50 nL of the appropriate test compound antagonist or agonist control curves were added to cell plates using a Cartesian Hummingbird. Compound curves were allowed to incubate at room temperature on cell plates for approximately 15 minutes before addition of a 15 nM NECA (Sigma E2387) agonist challenge (5 uL volume). A control curve of NECA, a DMSO/Media control, and a single dose of Forskolin (Sigma F3917) were also included on each plate. After additions, cell plates were allowed to incubate at 37° C., 5% CO2, 90% Rh for 5.5-6 hours. After incubation, media was removed, and cell plates were washed 1× 50 uL with DPBS w/o Ca & Mg (Mediatech 21-031-CV). Into dry wells, 20 uL of 1× Reporter Lysis Buffer (Promega E3971 (diluted in dH2O from 5× stock)) was added to each well and plates frozen at −20° C. overnight. For β-galactosidase enzyme calorimetric assay, plates were thawed out at room temperature and 20 μL 2× assay buffer (Promega) was added to each well. Color was allowed to develop at 37° C., 5% CO2, 90% Rh for 1-1.5 h or until reasonable signal appeared. The calorimetric reaction was stopped with the addition of 60 μL/well 1M sodium carbonate. Plates were counted at 405 nm on a SpectraMax Microplate Reader (Molecular Devices). Data was analyzed in Microsoft Excel and IC/EC50 curves were fit using a standardized macro.

T2 sequence (P29274 whole entry): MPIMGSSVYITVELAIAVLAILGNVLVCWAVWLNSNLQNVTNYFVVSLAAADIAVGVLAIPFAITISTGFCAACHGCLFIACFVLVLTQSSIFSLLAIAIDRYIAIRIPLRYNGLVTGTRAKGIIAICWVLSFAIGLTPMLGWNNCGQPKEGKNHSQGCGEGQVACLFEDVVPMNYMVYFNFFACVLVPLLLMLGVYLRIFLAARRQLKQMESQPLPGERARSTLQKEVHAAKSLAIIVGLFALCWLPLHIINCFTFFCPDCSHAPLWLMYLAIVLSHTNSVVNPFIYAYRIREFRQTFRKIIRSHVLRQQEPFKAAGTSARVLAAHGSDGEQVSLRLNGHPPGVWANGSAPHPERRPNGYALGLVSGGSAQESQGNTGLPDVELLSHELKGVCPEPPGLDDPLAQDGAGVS
T3 sequence (P29274 whole entry): as above

One may read the pKi as the negative decadic logarithm of the Ki, by convention in mol/L. Lower therefore signals a high Ki. On to `COc1ncccc1C(O)c1cc2c(N)nc(-c3cccc(C#N)c3)nc2s1` (stereo not drawn) [Example 9, 3-{4-Amino-6-[hydroxy-(2-methoxy-pyridin-3-yl)-methyl]-thieno[2,3-d]pyrimidin-2-yl}-benzonitrile], for which the pKi in experiment [1] was 6.77; in experiment [2], 7.92; in experiment [3], 8.03.

In the case of `COc1ncccc1Cc1cc2c(N)nc(-c3cccc(C#N)c3)nc2s1` [Example 10, 3-[4-Amino-6-(2-methoxy-pyridin-3-ylmethyl)-thieno[2,3-d]pyrimidin-2-yl]-benzonitrile], the values for the pKi in experiment [1], in experiment [2] and in experiment [3] were 6.99, 7.47 and 7.84, respectively.

Take `N#Cc1cccc(-c2nc(N)c3cc(C(O)c4ccccn4)sc3n2)c1` (stereo not drawn) [Example 15, 3-[4-Amino-6-(hydroxy-pyridin-2-yl-methyl)-thieno[2,3-d]pyrimidin-2-yl]-benzonitrile]: the figures for the pKi in experiment [1], in experiment [2] and in experiment [3] were 6.82, 7.46 and 8.30, respectively.

Consider `N#Cc1cccc(-c2nc(N)c3cc(C(O)c4ccncc4Cl)sc3n2)c1` (stereo not drawn) [Example 21, 3-{4-Amino-6-[(3-chloro-pyridin-4-yl)-hydroxy-methyl]-thieno[2,3-d]pyrimidin-2-yl}-benzonitrile], for which the results for the pKi in experiment [1], in experiment [2] and in experiment [3] were 6.38, 7.36 and 7.91, respectively.

Take `N#Cc1cccc(-c2nc(N)c3cc(C(O)c4cccnc4Cl)sc3n2)c1` (stereo not drawn) [Example 30, 3-{4-Amino-6-[(2-chloro-pyridin-3-yl)-hydroxy-methyl]-thieno[2,3-d]pyrimidin-2-yl}-benzonitrile]: the figures for the negative logarithm of the Ki (pKi) in experiment [1], in experiment [2] and in experiment [3] were 6.46, 7.21 and 7.79, respectively.

With `COc1cccnc1C(O)c1cc2c(N)nc(-c3cccc(C#N)c3)nc2s1` (stereo not drawn) [Example 33, 3-{4-Amino-6-[hydroxy-(3-methoxy-pyridin-2-yl)-methyl]-thieno[2,3-d]pyrimidin-2-yl}-benzonitrile], the results for the negative-log Ki (pKi) in experiment [1], in experiment [2] and in experiment [3] were 7.07, 8.18 and 8.35, respectively.

With `COc1cccnc1Cc1cc2c(N)nc(-c3cccc(C#N)c3)nc2s1` [Example 34, 3-[4-Amino-6-(3-methoxy-pyridin-2-ylmethyl)-thieno[2,3-d]pyrimidin-2-yl]-benzonitrile], the results for the pKi in experiment [1], in experiment [2] and in experiment [3] were 7.58, 7.70 and 8.91, respectively.

In the case of `N#Cc1cccc(-c2nc(N)c3cc(Cc4cccnc4Cl)sc3n2)c1` [Example 35, 3-[4-Amino-6-(2-chloro-pyridin-3-ylmethyl)-thieno[2,3-d]pyrimidin-2-yl]-benzonitrile], the results for the pKi in experiment [1], in experiment [2] and in experiment [3] were 6.15, 7.55 and 7.94, respectively.

Consider `N#Cc1cccc(-c2nc(N)c3cc(Cc4ncccc4F)sc3n2)c1` [Example 38, 3-[4-Amino-6-(3-fluoro-pyridin-2-ylmethyl)-thieno[2,3-d]pyrimidin-2-yl]-benzonitrile], for which the pKi was 7.52 in experiment [1], 7.24 in experiment [2] and 8.85 in experiment [3].
